Here are results for 25 molecules from PubChem BioAssay AID330 (DTP/NCI, 2004).

The subject of the assay is P388 leukemia ip, CD2F1 mice, survival T/C. The assay is described as follows: NCI In Vivo Anticancer Drug Screen. Data for tumor model P388 Leukemia (intraperitoneal) in CD2F1 (CDF1) mice. The note with it: endpoint: median survival time, higher = longer survival. Summed up:
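Mice carrying the transplanted tumor received test compound or vehicle. Survival was recorded in each group, and the value is the treated-group measurement divided by that of the vehicle-treated control group.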

The mark [1] stands for this setting: dose: 50.0 mg/kg/injection, schedule: Q01DX005 (ip), vehicle: saline with Tween-80.
Where [2] appears, read: dose: 100.0 mg/kg/injection, schedule: Q01DX005 (ip), vehicle: saline with Tween-80.
Setting [3] is: dose: 200.0 mg/kg/injection, schedule: Q01DX005 (ip), vehicle: saline with Tween-80.
Setting [4] is: dose: 100.0 mg/kg/injection, schedule: Q01DX009 (ip), vehicle: saline with Tween-80.
[5] abbreviates: dose: 200.0 mg/kg/injection, schedule: Q01DX009 (ip), vehicle: saline with Tween-80.
[6] abbreviates: dose: 50.0 mg/kg/injection, schedule: Q01DX009 (ip), vehicle: saline with Tween-80.
[7] abbreviates: dose: 60.0 mg/kg/injection, schedule: Q01DX005 (ip), vehicle: Klucel (hydroxypropylcellulose) (HPC).
The mark [8] stands for this setting: dose: 120.0 mg/kg/injection, schedule: Q01DX005 (ip), vehicle: Klucel (hydroxypropylcellulose) (HPC).
The mark [9] stands for this setting: dose: 240.0 mg/kg/injection, schedule: Q01DX005 (ip), vehicle: Klucel (hydroxypropylcellulose) (HPC).
[10] abbreviates: dose: 50.0 mg/kg/injection, schedule: Q01DX005 (ip), vehicle: Klucel (hydroxypropylcellulose) (HPC).
Where [11] appears, read: dose: 6.25 mg/kg/injection, schedule: Q01DX009 (ip), vehicle: saline with Tween-80.
[12] abbreviates: dose: 12.5 mg/kg/injection, schedule: Q01DX009 (ip), vehicle: saline with Tween-80.
Where [13] appears, read: dose: 25.0 mg/kg/injection, schedule: Q01DX009 (ip), vehicle: saline with Tween-80.
Where [14] appears, read: dose: 100.0 mg/kg/injection, schedule: Q01DX005 (ip), vehicle: Klucel (hydroxypropylcellulose) (HPC).
The mark [15] stands for this setting: dose: 200.0 mg/kg/injection, schedule: Q01DX005 (ip), vehicle: Klucel (hydroxypropylcellulose) (HPC).

“And” between values parts separate entries of the source, which are not always exact repeats. Equal entries are not always repeated. Toxic doses and inconclusive results are not listed.

As for `O=C1C=C(Nc2ccc(Br)cc2)C(Nc2ccc(Br)cc2)=CC1=O`, the T/C was 97 % of control (dose: 4.68 mg/kg/injection, schedule: Q01DX009 (ip), vehicle: saline with Tween-80); 105 % of control (dose: 9.37 mg/kg/injection, schedule: Q01DX009 (ip), vehicle: saline with Tween-80); 100 % of control (dose: 18.75 mg/kg/injection, schedule: Q01DX005 (ip), vehicle: saline with Tween-80); 106 % of control (dose: 18.75 mg/kg/injection, schedule: Q01DX009 (ip), vehicle: saline with Tween-80); 92 % of control (dose: 37.5 mg/kg/injection, schedule: Q01DX005 (ip), vehicle: saline with Tween-80).

For the molecule `Cc1nn(C(=S)S)c(C)c1N=Nc1ccc(F)cc1`, the T/C is 103 % of control under setting [1], 110 % of control under setting [2] and 101 % of control under setting [3].

For the molecule `C=CC(=O)Oc1ccccc1/C=C/C(=O)CCCCCC`, the T/C is 98 % of control under setting [1], 107 % of control under setting [2] and 105 % of control under setting [3].

Regarding `O=C1CCSc2ccccc21`, the T/C was 95 % of control under setting [4] and 109 % of control under setting [5].

For `CC(=O)N(C)O`, the T/C is 100 % of control and 104 % of control under setting [6]; 105 % of control and 110 % of control under setting [4]; 121 % of control under setting [3]; 160 % of control (dose: 400.0 mg/kg/injection, schedule: Q01DX009 (ip), vehicle: saline with Tween-80).

Turning to `CCOC(=O)C1C(c2ccc(OC)cc2OC)c2cc3c(cc2OC1(C)N1CCCC1)OCO3` (stereo not drawn), the T/C is 90 % of control under setting [7], 97 % of control under setting [8] and 94 % of control under setting [9].

Regarding `CC1(C)CC(OP(=O)(OC2CC(C)(C)N(O)C(C)(C)C2)N2CC2)CC(C)(C)N1O`, the T/C runs as follows: (dose: 100.0 mg/kg/injection, schedule: Q01DX001 (ip), vehicle: Klucel (hydroxypropylcellulose) (HPC)) 100 % of control; (dose: 200.0 mg/kg/injection, schedule: Q01DX001 (ip), vehicle: Klucel (hydroxypropylcellulose) (HPC)) 97 % of control; (dose: 400.0 mg/kg/injection, schedule: Q01DX001 (ip), vehicle: Klucel (hydroxypropylcellulose) (HPC)) 104 % of control.

For the molecule `CCOC(=O)C1C(C)=CC2=Nc3ccccc3NC(=O)C2C1c1ccccc1` (stereo not drawn), the T/C runs as follows: (dose: 25.0 mg/kg/injection, schedule: Q01DX005 (ip), vehicle: Klucel (hydroxypropylcellulose) (HPC)) 104 % of control; under setting [10], 106 % of control.

Turning to `Cc1c2oc3c(C)ccc(C(=O)OCCN4CCCCC4)c3nc-2c(C(=O)OCCN2CCCCC2)c(N)c1=O`, the T/C under setting [11] was 100 % of control, the T/C under setting [12] was 99 % of control, the T/C under setting [13] is 107 % of control and the T/C under setting [6] was 113 % of control.

Consider `COc1cc(NCCCCC(C)N)c2nccc(C)c2c1` (stereo not drawn), for which the T/C is, setting by setting: (dose: 12.5 mg/kg/injection, schedule: Q01DX009 (ip), vehicle: saline) 94 % of control; (dose: 25.0 mg/kg/injection, schedule: Q01DX009 (ip), vehicle: saline) 92 % of control.

As for `Nc1[nH]c(=S)[nH]c(=O)c1NS(=O)(=O)c1cccc([N+](=O)[O-])c1`, the T/C reads like this: (dose: 30.0 mg/kg/injection, schedule: Q01DX005 (ip), vehicle: Klucel (hydroxypropylcellulose) (HPC)) 103 % of control and 105 % of control; under setting [7], 100 % of control and 97 % of control; under setting [8], 98 % of control and 97 % of control; under setting [9], 99 % of control and 106 % of control.

For `CSc1nc(NC2OC(CO)C(O)C(O)C2O)c(Cl)c(=O)[nH]1` (stereo not drawn), the T/C is 97 % of control (dose: 60.0 mg/kg/injection, schedule: Q01DX005 (ip), vehicle: saline with Tween-80); 97 % of control (dose: 120.0 mg/kg/injection, schedule: Q01DX005 (ip), vehicle: saline with Tween-80); 98 % of control (dose: 240.0 mg/kg/injection, schedule: Q01DX005 (ip), vehicle: saline with Tween-80).

Consider `COC(=O)c1ccc(O)cc1C1(Cl)CC1`, for which the T/C is 108 % of control under setting [7], 102 % of control under setting [8] and 100 % of control under setting [9].

Consider `CC(=O)Nc1ccc(CN2CC(C)N(N)C(C)C2)cc1` (stereo not drawn), for which the T/C reads like this: (dose: 25.0 mg/kg/injection, schedule: Q04DX003 (ip), vehicle: Klucel (hydroxypropylcellulose) (HPC)) 101 % of control; (dose: 50.0 mg/kg/injection, schedule: Q04DX003 (ip), vehicle: Klucel (hydroxypropylcellulose) (HPC)) 98 % of control; (dose: 100.0 mg/kg/injection, schedule: Q04DX003 (ip), vehicle: Klucel (hydroxypropylcellulose) (HPC)) 95 % of control; (dose: 200.0 mg/kg/injection, schedule: Q04DX003 (ip), vehicle: Klucel (hydroxypropylcellulose) (HPC)) 100 % of control; (dose: 400.0 mg/kg/injection, schedule: Q04DX003 (ip), vehicle: Klucel (hydroxypropylcellulose) (HPC)) 104 % of control.

`O=S(=O)(Oc1cccc(C(F)(F)F)c1)c1cccc(C(F)(F)F)c1`: the T/C by setting is: under setting [11], 100 % of control; (dose: 6.25 mg/kg/injection, schedule: Q04DX003 (ip), vehicle: saline with Tween-80) 100 % of control; under setting [12], 91 % of control; (dose: 12.5 mg/kg/injection, schedule: Q04DX003 (ip), vehicle: saline with Tween-80) 100 % of control; under setting [13], 91 % of control; (dose: 25.0 mg/kg/injection, schedule: Q04DX003 (ip), vehicle: saline with Tween-80) 100 % of control.

As for `COC(=O)CCCc1ccc(OC)c(OC)c1`, the T/C reads like this: under setting [12], 100 % of control; under setting [13], 92 % of control; under setting [6], 95 % of control; under setting [4], 89 % of control.

With `CCCCC(CC)C(=O)[O][Sn]([CH2]CCC)([CH2]CCC)[O]C(=O)C(CC)CCCC` (stereo not drawn), the T/C (dose: 1.5 mg/kg/injection, schedule: Q01DX009 (ip), vehicle: saline sonified) was 104 % of control; the T/C (dose: 3.0 mg/kg/injection, schedule: Q01DX009 (ip), vehicle: saline sonified) was 95 % of control; the T/C (dose: 6.0 mg/kg/injection, schedule: Q01DX009 (ip), vehicle: saline sonified) is 118 % of control.

For the molecule `CC(=O)Nc1ccc(/C=N/NC(=O)CNC(=O)Nc2cccc(Cl)c2Cl)cc1`, the T/C under setting [13] is 99 % of control, the T/C under setting [6] was 97 % of control, the T/C under setting [4] is 89 % of control and the T/C under setting [5] was 93 % of control.

Turning to `COc1ccc2cc1Oc1ccc(cc1)CC1c3cc(OC)c(cc3CCN1C)Oc1c(O)c(OC)cc3c1C(C2)N(C)CC3` (stereo not drawn), the T/C is, setting by setting: (dose: 3.88 mg/kg/injection, schedule: Q01DX005 (ip), vehicle: Klucel (hydroxypropylcellulose) (HPC)) 103 % of control; (dose: 7.75 mg/kg/injection, schedule: Q01DX005 (ip), vehicle: Klucel (hydroxypropylcellulose) (HPC)) 95 % of control; (dose: 15.5 mg/kg/injection, schedule: Q01DX005 (ip), vehicle: Klucel (hydroxypropylcellulose) (HPC)) 95 % of control; (dose: 31.0 mg/kg/injection, schedule: Q01DX005 (ip), vehicle: Klucel (hydroxypropylcellulose) (HPC)) 95 % of control.

Take `O=C(Nc1ccc(Cl)cc1)Sc1nnc2c(n1)[nH]c1ccccc12`: the T/C reads like this: under setting [10], 103 % of control; under setting [14], 111 % of control; under setting [15], 103 % of control.

In the case of `Nc1ccc(O)c2c1C(=O)c1ccccc1C2=O`, the T/C under setting [1] was 93 % of control, the T/C under setting [2] was 111 % of control and the T/C under setting [3] was 101 % of control.

On to `OCCN=Cc1ccccc1O.OCCN=Cc1ccccc1O.[Cu]`, for which, under setting [10], the T/C was 110 % of control.

`CCOC(=O)C1Cc2c(n(C3CCCCC3)c(=O)n(C)c2=O)OC1c1ccccc1` (stereo not drawn): the T/C is 100 % of control under setting [10], 96 % of control under setting [14] and 90 % of control under setting [15].

With `NNC(=O)CCC(=O)NN`, the T/C is 101 % of control (dose: 100.0 mg/kg/injection, schedule: Q04DX002 (ip), vehicle: saline) and 96 % of control (dose: 200.0 mg/kg/injection, schedule: Q04DX002 (ip), vehicle: saline).

For the molecule `CN(O)C(=O)CN`, the T/C under setting [1] is 102 % of control; the T/C under setting [2] is 102 % of control; the T/C under setting [3] is 98 % of control; the T/C (dose: 400.0 mg/kg/injection, schedule: Q01DX005 (ip), vehicle: saline with Tween-80) was 100 % of control.
